Test results as given in US12486274B2, “Substituted pyrazolo-pyrimidines and uses thereof” (Verge Analytics, Inc., priority 2020, dated 2025).

How the values were obtained:
[1] = molecular target: Full length human recombinant PIKFYVE (Homo sapiens (Human), UniProt Q9Y2I7); assay: Inhibition of PIKfyve (microfluidic electrophoresis kinase assay); type: biochemical; settings: 2 nM enzyme, PI3P/PS substrate, 3 h at room temperature, 12 concentrations
How it was run: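 GST-tagged full-length PIKfyve (baculovirus-expressed, 2 nM final) with fluorescent PI3P/PS substrate (1 μM PI3P) and […] in HEPES pH 7.5 with Mg2+/Mn2+, 1% DMSO, 3 h at room temperature; 12 concentrations. PI(3,5)P product and substrate separated by microfluidic electrophoresis; % inhibition from product/sum ratio.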

[2] = test system: C9 iPSC MN (ALS patient derived motor neurons); assay: iPSC MN Survival assay; type: cell-based, human; settings: for C9 iPSC MN Survival hazard ratio: maximal reduction in hazard ratio vs control (Cox regression), <1.0 indicates increased survival; for EC50: Homo sapiens, iPSC, 144 h, motor neurons in nutrient deprived media (HBSS), six days, GFP imaging, read-out: C9 iPSC MN Significant survival rescue EC50
Experimental: [The source words this procedure for another variant and reports this variant under the same test.] iPSC MN Survival assay: Fibroblasts from ALS patients with known SOD1 A4V mutation were reprogrammed into inducible pluripotent stem cells (iPSC) and then differentiated to motor neurons. In culture, ALS patient derived motor neurons show increased death rate compared to motor neurons derived from healthy individuals in a stressed condition (nutrient deprived media, Hank's buffered salt solution-HBSS).
Cell rescue was measured following more than two different concentrations of each compound for six days with greater than four replicates in a 96-well format to ensure studies with power >0.8. Cells are transduced with a GFP reporter and imaged once a day to track survival. A broad-spectrum caspase inhibitor served as the positive control.
Microscopy image-based readout: Cells are transduced with a GFP reporter and imaged once a day with a blue laser to track survival. Imagers used include the Biotek Cytation 5 and Thermo Fisher EVOS Auto FL 2. All Images undergo uniform processing consisting of rolling hat background subtraction and contrast adjustment.
Cells are identified by their shape and each cell is tracked across images and time points for each well. Survival is visually assessed from the Kaplan-Meier curves. Survival of the cells is modeled and tested using a mixed effects Cox regression where each well is modeled as the random effect, and the group (control/treatment) as the fixed effect. Hazard ratios between treatment and control are estimated within the Cox regression where a value of 1.0 denotes no change, values >1.0 indicate decreased survival in response to treatment, and values <1.0 indicate increased survival in response to treatment. Data are presented as the maximal reduction in hazard ratio scores measured at various concentrations.

[3] = test system: HEK 293T transfected with plasmids containing TDP-43 Q331K mutation; assay: HEK/TDP Survival assay (Cell-Titer-Glo); type: cell-based; settings: Homo sapiens; HEK 293T TDP-43 Q331K, 48 hrs, CTG readout
Experimental: HEK/TDP Survival assay: Immortalized human embryonic kidney 293T (HEK 293T) were transfected with plasmids containing TDP-43 Q331K mutation, resulting in an increase in cell death that is biologically relevant to ALS patients. Cell death is measured as reductions in the amount of ATP, an indicator of metabolically active cells, that is quantified by a luminescence Cell-Titer-Glo® (CTG) reagent. Compounds are evaluated in this model for changes in CTG compared to no treatment group. Increased signal indicates improved survival (rescue) and decreased signal indicates decreased survival.
Cell rescue was measured in a 96-well format with eight different concentrations of the test compound over 48 hrs with 6 replicates. The Promega Cell-Titer-Glo® Luminescent Cell Viability Assay was used to quantify ATP, an indicator of metabolically active cells (see protocol: https://www.promega.com/-/media/files/resources/protocols/technical-manuals/101/celltiterglo-2-O-assay-protocol.pdf?la=en). The luminescence signal was detected using the PerkinElmer En Vision or Molecular Devices SpectraMax.
The effect of a compound at a given dose on cell viability was determined using a three step procedure. First, Hedge's g for the Cell Titer-Glo luminescence values using six untreated wells on every plate as a control was calculated. […] Finally, values from all compound-dose pairs were corrected for multiple hypothesis testing using the Empirical Bayes framework of Stephens, M. (False discovery rates: a new deal, Biostatistics, 18 [2], 2017, 275-294) yielding credible intervals for the measured effect and associated s values.
Briefly, this method computes a local false sign rate for each experiment. Analogous to the local false discovery rate of Efron, B. (Size, power and false discovery rates, Ann. Statist. 35 [4], 2007, 1351-1377) this value measures the confidence in the sign of each effect (rather than confidence in each effect being non-zero). The s values reported in the previous figures are the expected fraction of errors if estimating the sign of all effects with greater absolute local false sign rate, defined in analogy to the q value of Storey, JD (The positive false discovery rate: a Bayesian interpretation and the q-value, Ann. Statist. 31 [6] 2003, 2013-2035).
Drugs that yielded signed log s values greater than 3 were considered hits. This threshold was determined by a separate calibration experiment in which Cell Titer-Glo® was measured in blank plates consisting of untreated cells to assess the noise inherent in the assay. Data are presented as the maximal effect of rescue obtained from the dose-response curve.

Full length human recombinant PIKFYVE, sequence (Q9Y2I7 whole entry): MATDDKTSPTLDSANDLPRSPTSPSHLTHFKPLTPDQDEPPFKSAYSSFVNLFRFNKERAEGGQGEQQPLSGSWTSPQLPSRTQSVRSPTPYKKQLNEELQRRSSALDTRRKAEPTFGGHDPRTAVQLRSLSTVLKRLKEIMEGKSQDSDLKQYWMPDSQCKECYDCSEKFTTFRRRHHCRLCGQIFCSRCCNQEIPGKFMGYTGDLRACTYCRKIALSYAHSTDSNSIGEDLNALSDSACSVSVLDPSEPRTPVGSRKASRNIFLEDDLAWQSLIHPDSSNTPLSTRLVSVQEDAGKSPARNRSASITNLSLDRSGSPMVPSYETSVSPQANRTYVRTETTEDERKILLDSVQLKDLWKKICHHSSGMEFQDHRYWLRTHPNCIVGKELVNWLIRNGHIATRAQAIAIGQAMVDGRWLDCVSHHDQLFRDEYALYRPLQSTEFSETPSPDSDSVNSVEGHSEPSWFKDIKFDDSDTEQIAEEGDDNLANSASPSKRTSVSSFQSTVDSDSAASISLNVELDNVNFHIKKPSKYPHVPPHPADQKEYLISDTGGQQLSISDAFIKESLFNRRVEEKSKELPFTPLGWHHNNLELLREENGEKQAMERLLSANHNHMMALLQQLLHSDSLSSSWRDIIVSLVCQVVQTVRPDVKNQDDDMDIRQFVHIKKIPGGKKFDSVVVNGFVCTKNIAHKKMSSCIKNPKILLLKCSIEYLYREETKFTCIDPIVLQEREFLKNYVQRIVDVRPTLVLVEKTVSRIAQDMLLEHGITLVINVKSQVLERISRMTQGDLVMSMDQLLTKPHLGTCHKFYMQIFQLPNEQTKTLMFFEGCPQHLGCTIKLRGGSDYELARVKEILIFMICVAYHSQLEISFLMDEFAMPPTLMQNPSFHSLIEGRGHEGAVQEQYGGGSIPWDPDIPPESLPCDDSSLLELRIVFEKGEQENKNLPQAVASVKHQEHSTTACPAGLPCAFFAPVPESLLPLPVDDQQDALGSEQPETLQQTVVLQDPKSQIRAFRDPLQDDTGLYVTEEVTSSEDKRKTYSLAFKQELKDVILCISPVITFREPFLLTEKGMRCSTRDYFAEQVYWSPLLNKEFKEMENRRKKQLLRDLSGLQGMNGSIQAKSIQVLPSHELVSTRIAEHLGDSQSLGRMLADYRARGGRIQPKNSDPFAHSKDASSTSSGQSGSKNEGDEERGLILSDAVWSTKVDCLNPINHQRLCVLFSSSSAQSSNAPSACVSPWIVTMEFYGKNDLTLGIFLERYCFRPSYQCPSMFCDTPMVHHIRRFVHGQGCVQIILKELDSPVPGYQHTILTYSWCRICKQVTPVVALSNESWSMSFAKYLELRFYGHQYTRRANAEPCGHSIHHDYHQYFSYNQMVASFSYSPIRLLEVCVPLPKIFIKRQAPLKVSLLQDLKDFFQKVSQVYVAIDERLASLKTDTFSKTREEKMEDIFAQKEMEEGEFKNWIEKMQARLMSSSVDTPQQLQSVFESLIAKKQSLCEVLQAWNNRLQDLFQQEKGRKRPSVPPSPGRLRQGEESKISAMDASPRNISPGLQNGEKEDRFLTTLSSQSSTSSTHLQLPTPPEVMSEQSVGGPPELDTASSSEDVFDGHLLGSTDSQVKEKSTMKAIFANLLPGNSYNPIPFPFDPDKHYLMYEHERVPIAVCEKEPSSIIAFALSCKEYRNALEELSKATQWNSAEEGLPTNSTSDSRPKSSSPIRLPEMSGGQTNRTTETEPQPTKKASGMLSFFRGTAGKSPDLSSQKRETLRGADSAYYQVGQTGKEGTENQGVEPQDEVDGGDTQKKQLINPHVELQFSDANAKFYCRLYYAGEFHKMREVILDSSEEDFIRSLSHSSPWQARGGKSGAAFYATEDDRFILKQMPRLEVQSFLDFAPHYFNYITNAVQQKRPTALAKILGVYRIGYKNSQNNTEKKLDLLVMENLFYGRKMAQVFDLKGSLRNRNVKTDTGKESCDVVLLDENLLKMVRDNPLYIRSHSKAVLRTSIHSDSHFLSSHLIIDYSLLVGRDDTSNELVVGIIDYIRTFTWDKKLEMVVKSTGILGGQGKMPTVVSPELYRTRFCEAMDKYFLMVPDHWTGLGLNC

Row | SMILES | IC50 [1] [nM] | C9 iPSC MN Survival hazard ratio [2] | EC50 [3] [nM] | EC50 [2] [nM]
1 | CONC(=O)c1cc2nc(-n3ccc(-c4cccc(C)c4)n3)cc(N3CCOCC3)n2n1 [Example 34, N-methoxy-7-morpholino-5-(3-(m-tolyl)-1H-pyrazol-1-yl)pyrazolo[1,5-a]pyrimidine-2-carboxamide] | 65.6 | 0.82 | – | –
2 | Cc1cccc(-c2ccn(-c3cc(N4CCOCC4)n4nc(C(=O)NCC5COC5)cc4n3)n2)c1 [Example 43, 7-morpholino-N-(oxetan-3-ylmethyl)-5-(3-(m-tolyl)-1H-pyrazol-1-yl)pyrazolo[1,5-a]pyrimidine-2-carboxamide] | 46.4 | – | 92 | –
3 | Cc1cccc(-c2ccn(-c3cc(N4CCOCC4)n4nc(-c5ccccn5)cc4n3)n2)c1 [Example 18, 4-(2-(pyridin-2-yl)-5-(3-(m-tolyl)-1H-pyrazol-1-yl)pyrazolo[1,5-a]pyrimidin-7-yl)morpholine] | 29.6 | – | 105 | 1000
4 | Cc1cccc(-c2ccn(-c3cc(N4CCOCC4)n4nc(-c5cccnc5)cc4n3)n2)c1 [Example 17, 4-(2-(pyridin-3-yl)-5-(3-(m-tolyl)-1H-pyrazol-1-yl)pyrazolo[1,5-a]pyrimidin-7-yl)morpholine] | 6.8 | 0.82 | 95 | 1000
5 | Cc1cccc(-c2ccn(-c3cc(N4CCOCC4)n4nc(C(=O)NCCCCN(C)C)cc4n3)n2)c1 [Example 41, N-(4-(dimethylamino)butyl)-7-morpholino-5-(3-(m-tolyl)-1H-pyrazol-1-yl)pyrazolo[1,5-a]pyrimidine-2-carboxamide] | 32.4 | – | 67 | –
6 | Cc1cccc(-c2ccn(-c3cc(N4CCOCC4)n4nc(-c5ccncc5)cc4n3)n2)c1 [Example 14, 4-[5-[3-(m-tolyl)pyrazol-1-yl]-2-(4-pyridyl)pyrazolo[1,5-a]pyrimidin-7-yl]morpholine] | 4.3 | 0.94 | 144 | > 6000
7 | Cc1cccc(-c2ccn(-c3cc(N4CCOCC4)n4nc(C(=O)NC5CC5)cc4n3)n2)c1 [Example 20, N-cyclopropyl-7-morpholino-5-(3-(m-tolyl)-1H-pyrazol-1-yl)pyrazolo[1,5-a]pyrimidine-2-carboxamide] | 30.2 | 0.85 | 103 | –
8 | Cc1cccc(-c2ccn(-c3cc(N4CCOCC4)n4nc(C(=O)NC5CCCC5)cc4n3)n2)c1 [Example 36, N-cyclopentyl-7-morpholino-5-(3-(m-tolyl)-1H-pyrazol-1-yl)pyrazolo[1,5-a]pyrimidine-2-carboxamide] | 21.6 | – | 67 | –
9 | Cc1cccc(-c2ccn(-c3cc(N4CCOCC4)n4nc(C(=O)N[C@H](C)C5CC5)cc4n3)n2)c1 [Example 21, (R)—N-(1-cyclopropylethyl)-7-morpholino-5-(3-(m-tolyl)-1H-pyrazol-1-yl)pyrazolo[1,5-a]pyrimidine-2-carboxamide] | 21.6 | – | 110 | –
10 | c1ccc(-c2ccn(-c3cc(N4CCOCC4)n4nc(-c5cccnc5)cc4n3)n2)cc1 [Compound 64, 4-[5-(3-phenylpyrazol-1-yl)-2-(3-pyridyl)pyrazolo[1,5-a]pyrimidin-7-yl]morpholine] | 68.1 | – | – | –
11 | Cc1cccc(-c2ccn(-c3cc(N4CCOCC4)n4nc(C(=O)N[C@@H]5CCOC5)cc4n3)n2)c1 [Compound 51, 7-morpholino-5-[3-(m-tolyl)pyrazol-1-yl]-N-[(3R)-tetrahydrofuran-3-yl]pyrazolo[1,5-a]pyrimidine-2-carboxamide] | 64.7 | – | – | –
12 | Cc1cccc(-c2ccn(-c3cc(N4CCOCC4)n4nc(C(=O)N5CCC5)cc4n3)n2)c1 [Example 28, azetidin-1-yl(7-morpholino-5-(3-(m-tolyl)-1H-pyrazol-1-yl)pyrazolo[1,5-a]pyrimidin-2-yl)methanone] | 137 | – | – | –
13 | Cc1cccc(-c2ccn(-c3cc(N4CCOCC4)n4nc(C(=O)N(C)C)cc4n3)n2)c1 [Example 24, N,N-dimethyl-7-morpholino-5-(3-(m-tolyl)-1H-pyrazol-1-yl)pyrazolo[1,5-a]pyrimidine-2-carboxamide] | 276 | – | – | –
14 | O=C(NCC1COC1)c1cc2nc(-n3ccc(-c4ccccc4)n3)cc(N3CCOCC3)n2n1 [Compound 76, 7-morpholino-N-(oxetan-3-ylmethyl)-5-(3-phenylpyrazol-1-yl)pyrazolo[1,5-a]pyrimidine-2-carboxamide] | 1590 | – | – | –
15 | Cc1cccc(-c2ccn(-c3cc(N4CCOCC4)n4nc(C(=O)N[C@@H](C)C5CC5)cc4n3)n2)c1 [Example 22, (S)—N-(1-cyclopropylethyl)-7-morpholino-5-(3-(m-tolyl)-1H-pyrazol-1-yl)pyrazolo[1,5-a]pyrimidine-2-carboxamide] | 12.6 | – | 112 | –
16 | Cc1cccc(-c2ccn(-c3cc(N4CCOCC4)n4nc(C(=O)N5CCCCC5)cc4n3)n2)c1 [Example 30, (7-morpholino-5-(3-(m-tolyl)-1H-pyrazol-1-yl)pyrazolo[1,5-a]pyrimidin-2-yl)(piperidin-1-yl)methanone] | 247 | – | – | –
17 | Cc1cc(Nc2cc(N3CCOCC3)n3nc(-c4ccncc4)cc3n2)n[nH]1 [Example 5, N-(5-methyl-1H-pyrazol-3-yl)-7-morpholino-2-(4-pyridyl)pyrazolo[1,5-a]pyrimidin-5-amine] | > 10000 | – | – | –
18 | c1ccc(-c2ccn(-c3cc(N4CCOCC4)n4nc(-c5ncccn5)cc4n3)n2)cc1 [Compound 63, 4-[5-(3-phenylpyrazol-1-yl)-2-pyrimidin-2-yl-pyrazolo[1,5-a]pyrimidin-7-yl]morpholine] | 693 | – | – | –
19 | Cc1cccc(-c2ccn(-c3cc(N4CCOCC4)n4nc(-c5cc(C)n(C)n5)cc4n3)n2)c1 [Compound 87, 4-[2-(1,5-dimethylpyrazol-3-yl)-5-[3-(m-tolyl)pyrazol-1-yl]pyrazolo[1,5-a]pyrimidin-7-yl]morpholine] | 0.9 | – | – | –
20 | Cc1cccc(-c2ccn(-c3cc(N4CCOCC4)n4nc(C(=O)N[C@H]5CCOC5)cc4n3)n2)c1 [Compound 50, 7-morpholino-5-[3-(m-tolyl)pyrazol-1-yl]-N-[(3S)-tetrahydrofuran-3-yl]pyrazolo[1,5-a]pyrimidine-2-carboxamide] | 18.4 | – | – | –
21 | Clc1cccc(-c2ccn(-c3cc(N4CCOCC4)n4nc(-c5cccnc5)cc4n3)n2)c1 [Compound 105, 4-[5-[3-(3-chlorophenyl)pyrazol-1-yl]-2-(3-pyridyl)pyrazolo[1,5-a]pyrimidin-7-yl]morpholine] | > 10000 | – | – | –
22 | Cc1cccc(-c2ccn(-c3cc(N4CCOCC4)n4nc(-c5cn[nH]c5)cc4n3)n2)c1 [Compound 113, 4-[5-[3-(m-tolyl)pyrazol-1-yl]-2-(1H-pyrazol-4-yl)pyrazolo[1,5-a]pyrimidin-7-yl]morpholine] | 2.5 | – | – | –
23 | Nc1nccc(-c2cc3nc(-n4ccc(-c5ccccc5)n4)cc(N4CCOCC4)n3n2)n1 [Compound 104, 4-[7-morpholino-5-(3-phenylpyrazol-1-yl)pyrazolo[1,5-a]pyrimidin-2-yl]pyrimidin-2-amine] | 106 | – | – | –
